Converted amounts (≈) assume the structure as drawn. Where a name gives a salt, the structure may show the parent alone.

Assay [1] concerns isolated left atrium of male guineapigs. Kind of assay: Antiarrhythmic action on the isolated guineapig atrium (drop in maximum rhythmicity). To be noted: Cavia porcellus, Tyrode's solution pH 7.4, 32° C., read-out: Maximum rhythmicity (ED 50%): concentration which causes a 50% drop in the maximum rhythmicity. Set-up: species or system guineapig (strain: Pirbright white). The procedure: The antiarrhythmic activity of the compounds according to the invention was determined on the isolated left atrium of male guineapigs (strain: Pirbright white, weight: 350 to 450 g).
Atria suspended in an organ bath (volume: 125 ml) with carbogen-saturated Tyrode's solution (pH 7.4, 32° C.) were pre-loaded with 1.0 g and subjected to square-wave pulses having a base rhythm of 1 Hz and twice the excitation threshold (rheobase: 0.2-1.4 V, chronaxia: 0.3-0.5 msec).
The frequency (Hz) up to which contraction follows each stimulus (maximum rhythmicity, MR) was determined, by automatically and continuously increasing the frequency, as a criterion of the antiarrhythmic activity. The concentration which causes a drop in the maximum rhythmicity of 50% (EC 50%) was calculated from the linear relationship between the logarithm of the concentration (mg/l) and the relative drop in the maximum rhythmicity (%).
(§1) The known antiarrhythmic drug propafenone [2-(2-hydroxy-3-propylamino-propoxy)-3-phenyl-propiophenone hydrochloride]was used as the comparative substance.

Assay [2] has as its system aconitine arrhythmia in rats. Kind of assay: Antiarrhythmic action on aconitine arrhythmia in rats. It counts as in vivo, rat (strain: Sprague Dawley). The conditions noted are these: Rattus norvegicus, po, 1 h, peroral administration, aconitine infused 60 minutes after substance, read-out: ED 50%: dose which causes a 50% extension in the period of aconitine infusion. How it is done:
Moreover, the novel compounds were administered orally or intravenously to male rats (strain: Sprague Dawley, weight: 200-230 g) to determine the antiarrhythmic activity. 45 minutes later, the animals were anesthetized by intraperitoneal administration of 100 mg/kg of thiobutabarbital sodium. Aconitine served as the arrhythmogenic substance, and was infused intravenously at a dosage rate of 0.005 mg/kg/minute 60 minutes after administration of the substance. In untreated animals (n=52), arrhythmias appeared in the ECG after 2.74±0.07 minutes. These arrhythmias can be delayed by antiarrhythmic drugs, as a function of the dose.
The dose which extends the infusion period by 50% (ED 50%) was determined from the linear relationship between the logarithm of the dose (mg/kg) of the trial substance and the relative extension of the period of aconitine infusion (Δ%).
as §1

On to `COCCNCC(O)COc1ccccc1C(=O)CCc1ccccc1` (stereo not drawn) [Example 9, 2-[2'-Hydroxy-3'-(2-methoxyethylamino)-propoxy]-β-phenyl-propiophenone hydrochloride], for which the EC50 in assay [1] stood at 0.757 mg/L. The ED50 in assay [2] worked out at 27 mg/kg.

For `CSCC(C)NCC(O)COc1ccccc1C(=O)CCc1ccccc1` (stereo not drawn) [Example 10, 2-[2'-Hydroxy-3'-(3-thiomethoxyprop-2-ylamino)-propoxy]-β-phenyl-propiophenone hydrochloride], in assay [1], the EC50 was 1.13 mg/L. Moreover, in assay [2], the ED50 was 46.4 mg/kg.

Take `O=C(CCc1ccccc1)c1ccccc1OCC(O)CN1CCC(O)CC1` (stereo not drawn) [Example 23, 2-[2'-Hydroxy-3'-(4-hydroxypiperidino)-propoxy]-β-phenyl-propiophenone hydrochloride]: the EC50 in assay [1] is 1.64 mg/L. Besides, the ED50 in assay [2] turned out to be 31.6 mg/kg.

For `O=C(CCc1ccccc1)c1ccccc1OCC(O)CN1CCC(O)(c2ccccc2)CC1` (stereo not drawn) [Example 24, 2-[2'-Hydroxy-3'-(4-hydroxy-4-phenyl-piperidino)-propoxy]-β-phenyl-propiophenone hydrochloride], the EC50 in assay [1] worked out at 2.65 mg/L. In assay [2], the ED50 came to 25.4 mg/kg.

Regarding `CN1CCN(CC(O)COc2ccccc2C(=O)CCc2ccccc2)CC1` (stereo not drawn) [Example 25, 2-[2'-Hydroxy-3'-(4-methyl-piperazin-1-yl)-propoxy]-β-phenyl-propiophenone bis-hydrochloride], the EC50 in assay [1] is 1.01 mg/L. Besides, in assay [2], the ED50 came to 11.2 mg/kg.

As to `CCCNCC(O)COc1ccccc1C(=O)CCc1ccc(F)cc1` (stereo not drawn) [Example 33, 2-(2'-Hydroxy-3'-n-propylamino-propoxy)-β-(4-fluorophenyl)-propiophenone hydrochloride], in assay [1], the EC50 is 2.05 mg/L. Moreover, the ED50 in assay [2] is 24.5 mg/kg.

Turning to `CCCNCC(O)COc1ccccc1C(=O)CCc1ccc(C)cc1` (stereo not drawn) [Example 34, 2-(2'-Hydroxy-3'-n-propylamino-propoxy)-β-(4-methylphenyl)-propiophenone hydrochloride], the EC50 in assay [1] turned out to be 1.72 mg/L. In addition, the ED50 in assay [2] was 21.5 mg/kg.

`CCCNCC(O)COc1ccccc1C(=O)CCc1ccc(N(C)C)cc1` (stereo not drawn) [Example 35, 2-(2'-Hydroxy-3'-n-propylamino-propoxy)-β-(4-dimethylaminophenyl)-propiophenone hydrochloride]: in assay [1], the EC50 was found to be 1.65 mg/L. Besides, the ED50 in assay [2] stood at 1.99 mg/kg.

Regarding `CCCNCC(O)COc1ccccc1C(=O)CCc1cc(OC)c(OC)c(OC)c1` (stereo not drawn) [Example 49, 2-(2'-Hydroxy-3'-n-propylaminopropoxy)-β-(3,4,5-trimethoxyphenyl)-propiophenone], the EC50 in assay [1] came to 1.82 mg/L (≈ 4.22 µM). Besides, in assay [2], the ED50 stood at 31.6 mg/kg.

With `CN(C)c1ccc(CCC(=O)c2ccccc2OCC(O)CN2CCCCC2)cc1` (stereo not drawn) [Example 55, 2-(2'-Hydroxy-3'-piperidino-propoxy)-β-(4-dimethylaminophenyl)-propiophenone], in assay [1], the EC50 amounted to 0.854 mg/L (≈ 2.08 µM). Also, the ED50 in assay [2] was determined as 5.7 mg/kg.

Regarding `CN(C)c1ccc(CCC(=O)c2ccccc2OCC(O)CNC2CC2)cc1` (stereo not drawn) [Example 57, 2-(2'-Hydroxy-3'-cyclopropylamino-propoxy)-β-(4-dimethylaminophenyl)-propiophenone hydrochloride], the EC50 in assay [1] was determined as 2.04 mg/L. For the same compound, the ED50 in assay [2] worked out at 1.78 mg/kg.

Regarding `CCCCNCC(O)COc1ccccc1C(=O)CCc1ccc(N(C)C)cc1` (stereo not drawn) [Example 58, 2-(2'-Hydroxy-3'-n-butylamino-propoxy)-β-(4-dimethylaminophenyl)-propiophenone hydrochloride], the EC50 in assay [1] amounted to 1.92 mg/L. In addition, the ED50 in assay [2] turned out to be 2.33 mg/kg.

With `COCC(C)NCC(O)COc1ccccc1C(=O)CCc1ccc(N(C)C)cc1` (stereo not drawn) [Example 60, 2-[2'-Hydroxy-3'-(3-methoxy-prop-2-ylamino)-propoxy]-β-(4-dimethylaminophenyl)-propiophenone hydrochloride], the EC50 in assay [1] amounted to 1.82 mg/L. Further, the ED50 in assay [2] turned out to be 3.25 mg/kg.

Consider `CN1CCN(CC(O)COc2ccccc2C(=O)CCc2ccc(N(C)C)cc2)CC1` (stereo not drawn) [Example 67, 2-[2'-Hydroxy-3'-(4-methyl-piperazin-1-yl)-propoxy]-β-(4-dimethylaminophenyl)-propiophenone hydrochloride], for which, in assay [1], the EC50 is 0.658 mg/L. Moreover, the ED50 in assay [2] turned out to be 2.15 mg/kg.

Source of the values: patent publication US4540697A, “Aminopropanol derivatives of 2-hydroxy-β-phenyl-propiophenones, pharmaceutical compositions and use” (priority 1984, dated 1985).
